Target: T1, human histone demethylase JMJD2A (catalytic domain, residues 1-350) (Homo sapiens, UniProt O75164)
T1 construct: recombinantly produced catalytic domain, residues 1-350, of the human histone demethylase JMJD2A
T1 sequence (O75164 1-350): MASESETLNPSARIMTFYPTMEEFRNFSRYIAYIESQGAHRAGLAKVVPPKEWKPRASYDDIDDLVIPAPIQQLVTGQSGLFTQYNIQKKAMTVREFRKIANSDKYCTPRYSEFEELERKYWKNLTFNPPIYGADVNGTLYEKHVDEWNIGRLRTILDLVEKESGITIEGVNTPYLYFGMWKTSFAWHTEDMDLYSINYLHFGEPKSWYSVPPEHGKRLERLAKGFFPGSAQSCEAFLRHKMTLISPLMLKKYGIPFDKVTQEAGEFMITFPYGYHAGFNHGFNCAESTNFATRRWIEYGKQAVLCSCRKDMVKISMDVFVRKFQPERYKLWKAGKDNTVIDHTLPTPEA
Assay: Jumonji type histone demethylase (JMJD2A) activity assay with Luminos reagent formaldehyde fluorescence detection
Format: biochemical
Settings: 1.0 mM NOG; 0.5 mM 2-OG, 0.3 mM H3K9me3 peptide, 5 μM JMJD2A, 37° C., 30 minutes; triplicate
Description: A series of demethylase assays with Luminos reagent are performed. These assays are conducted with recombinantly produced catalytic domain, residues 1-350, of the human histone demethylase JMJD2A that demethylates the trimethylated forms of Lys9 and Lys36 in histone H3.
A positive control assay is performed using a 100 microliter assay cocktail of 20 mM HEPES pH 7.5, 50 mM NaCl, 1 mM Sodium Ascorbate, 0.05 mM FeSO4, and 5 μM JMJD2A. The assay is initiated by the addition of the cofactor 2-oxoglutarate (2-OG, 0.5 mM) and a 15-residue histone H3 trimethylated Lys9 (H3K9me3) substrate peptide (0.3 mM, H2N-[…](tri-methyl)STGGKA-amide) (SEQ ID NO. 1).
Three negative control reactions are performed in which 2-OG, the H3K9me3 peptide, and JMJD2A are omitted, respectively. […] Specifically, reactions are performed with 1.0 mM N-oxalylglycine (NOG), a competitive inhibitor of 2-OG, and desferoxamine (0.2 mM), a potent Fe(II) chelator that inhibits the oxidative reaction catalyzed by Fe(II)-dependent JmjC demethylases. […] Fifty microliters of the Luminos reagent solution prepared as described in Example 1 is then added to each reaction and the fluorescence is allowed to develop at 37° C. for 30 minutes. The fluorescence of the formaldehyde-Luminos reagent adduct is measured at 510 nm using an excitation wavelength of 440 nm with a Tecan Safire 2 microplate reader. […]

- diminishes fluorescence in comparison to the positive control assay: two-fold
Structure (SMILES): O=C(O)CNC(=O)C(=O)O [NOG, N-oxalylglycine]

Source: US8765396B2, “Method of screening a test agent for activity to modulate an oxidative demethylation enzyme” (Arbor Assays LLC, priority 2009, dated 2014)
